Starred links: 1 amine or outer side, 2 acyl side, 3 side chain; linkers in the order of their positions; H or OH if unused. Positions of bridges follow the written chain, without caps; N, C: chain ends. Non-standard residues stand in square brackets, D forms with d. Residues, ends and D or L forms follow the SMILES beside them. *: point of attachment. X5 = Cn1nc(C(=O)Nc2ccc(-c3ccc(C[C@H](N[*:1])C(=O)[*:2])cc3)cc2)c2ccccc21; Bip(4'-NHBz) = N[C@@H](Cc1ccc(-c2ccc(NC(=O)c3ccccc3)cc2)cc1)C(=O)O; Bip(4'-NH) = O=C([C@H](Cc1ccc(-c2ccc(N[*:3])cc2)cc1)N[*:1])[*:2]; dArg(ω-(3-HO-benzyl)) = N=C(NCCC[C@@H](N)C(=O)O)NCc1cccc(O)c1; Indazole3carbonyl(1-CH2COOH) = O=C(O)Cn1nc(C(=O)*)c2ccccc21; Bip(4'-COOH) = N[C@@H](Cc1ccc(-c2ccc(C(=O)O)cc2)cc1)C(=O)O; Bip(4'-NHAc) = CC(=O)Nc1ccc(-c2ccc(C[C@H](N)C(=O)O)cc2)cc1; X44 = N#Cc1ccc(CNC(=N)NCCC[C@@H](N[*:1])C(=O)[*:2])cc1; X7 = N=C(NCCC[C@@H](N[*:1])C(=O)[*:2])NCc1ccc2occc2c1; Pro(trans-4-Ph) = O=C(O)[C@@H]1C[C@@H](c2ccccc2)CN1; dArg(ω-Bn) = N=C(NCCC[C@@H](N)C(=O)O)NCc1ccccc1; Ala(morpholin-4-yl) = N[C@@H](CN1CCOCC1)C(=O)O; Benzoyl(3-OCH2COOH) = O=C(O)COc1cccc(C(=O)*)c1; Phe(3-CONH2) = NC(=O)c1cccc(C[C@H](N)C(=O)O)c1; Bip = N[C@@H](Cc1ccc(-c2ccccc2)cc1)C(=O)O; Tiq1c(1S) = O=C(O)[C@H]1NCCc2ccccc21; 2Pal = N[C@@H](Cc1ccccn1)C(=O)O; Cha = N[C@@H](CC1CCCCC1)C(=O)O; Chg = N[C@H](C(=O)O)C1CCCCC1; Tle = CC(C)(C)[C@H](N)C(=O)O; Sar = CNCC(=O)O
The compounds below were run against TNFα (Homo sapiens, UniProt P01375) (assay: TNF-Induced HEK-Blue Assay). Conditions: not given.
Format: cell-based

TNFα, sequence (P01375 77-233 limits assumed): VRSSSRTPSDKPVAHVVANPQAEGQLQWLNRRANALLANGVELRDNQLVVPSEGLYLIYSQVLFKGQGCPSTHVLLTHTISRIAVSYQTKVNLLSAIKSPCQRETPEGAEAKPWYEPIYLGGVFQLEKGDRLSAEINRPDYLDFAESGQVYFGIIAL

| SMILES | IC50 [nM] |
| --- | --- |
| CC(C)C[C@@H]1NC(=O)[C@H](CCCNC(=N)N)NC(=O)[C@H](C(C)C)NC(=O)[C@@H]2CCCN2C(=O)[C@H](C(C)C)NC(=O)[C@@H](CCCNC(=N)NCc2ccc(C#N)cc2)NC(=O)[C@H](CC(=O)O)NC(=O)[C@@H]2CCCN2C(=O)CN(C)C(=O)[C@H](Cc2ccc(-c3ccc(NC(=O)c4nn(CC(=O)O)c5ccccc45)cc3)cc2)NC(=O)[C@H](Cc2ccc(-c3ccccc3)cc2)NC(=O)[C@H](CN2CCOCC2)NC(=O)CSC[C@@H](C(=O)NCC(N)=O)NC1=O [Example 506] ({CH2CO}-[Ala(morpholin-4-yl)][Bip][Bip(4'-NH)](Indazole3carbonyl(1-CH2COOH))[Sar]PD[X44]VPVRLCG-NH2; thioether N-13) | < 50 |
| CC[C@H](C)[C@@H]1NC(=O)[C@@H](CCCNC(=N)NCc2ccc3occc3c2)NC(=O)[C@H](CC(=O)O)NC(=O)[C@H](Cc2cnc[nH]2)NC(=O)CN(C)C(=O)[C@H](Cc2ccc(-c3ccc(NC(=O)c4nn(CC(=O)O)c5ccccc45)cc3)cc2)NC(=O)[C@H](Cc2ccc(-c3ccccc3)cc2)NC(=O)[C@H](CC2CCCCC2)NC(=O)CSC[C@@H](C(=O)NCC(N)=O)NC(=O)[C@H](CC(C)C)NC(=O)[C@H](Cc2cnc[nH]2)NC(=O)[C@H](C(C)C)NC(=O)[C@@H]2CCCN2C1=O [Example 479] ({CH2CO}-[Cha][Bip][Bip(4'-NH)](Indazole3carbonyl(1-CH2COOH))[Sar]HD[X7]IPVHLCG-NH2; thioether N-13) | < 50 |
| CC(C)C[C@@H]1NC(=O)[C@H](Cc2ccc(O)cc2)NC(=O)[C@H](C(C)C)NC(=O)[C@@H]2CCCN2C(=O)[C@H](C(C)C)NC(=O)[C@@H](CCCNC(=N)NCc2cccc(O)c2)NC(=O)[C@H](CC(=O)O)NC(=O)[C@@H]2CCCN2C(=O)CN(C)C(=O)[C@H](Cc2ccc(-c3ccc(NC(=O)c4nn(CC(=O)O)c5ccccc45)cc3)cc2)NC(=O)[C@H](Cc2ccc(-c3ccccc3)cc2)NC(=O)[C@H](CN2CCOCC2)NC(=O)CSC[C@@H](C(=O)NCC(N)=O)NC1=O [Example 625] ({CH2CO}-[Ala(morpholin-4-yl)][Bip][Bip(4'-NH)](Indazole3carbonyl(1-CH2COOH))[Sar]PD[dArg(ω-(3-HO-benzyl))]VPVYLCG-NH2; thioether N-13) | < 50 |
| CC[C@H](C)[C@@H]1NC(=O)[C@@H](CCCNC(=N)N)NC(=O)[C@H](CC(=O)O)NC(=O)[C@H](Cc2cnc[nH]2)NC(=O)CN(C)C(=O)[C@H](Cc2ccc(-c3ccc(NC(=O)c4ccccc4)cc3)cc2)NC(=O)[C@H](Cc2ccc(-c3ccc(C(=O)O)cc3)cc2)NC(=O)[C@H](CC2CCCCC2)NC(=O)CSC[C@@H](C(=O)NCC(N)=O)NC(=O)[C@H](CC(C)C)NC(=O)[C@H](Cc2cnc[nH]2)NC(=O)[C@H](C(C)C)NC(=O)[C@@H]2c3ccccc3CCN2C1=O [Example 373] ({CH2CO}-[Cha][Bip(4'-COOH)][Bip(4'-NHBz)][Sar]HD[dR]I[Tiq1c(1S)]VHLCG-NH2; thioether N-13) | < 50 |

Same assay, conditions: HEK-Blue-CD40L cells, NF-kB-driven secreted alkaline phosphatase reporter; TNFα 0.5 ng/ml; 18 h; read-out: TNF induced HEK-Blue assay IC50 value

| IC50 [nM] | SMILES |
| --- | --- |
| < 50 | CC(=O)Nc1ccc(-c2ccc(C[C@@H]3NC(=O)[C@H](Cc4ccc(-c5ccccc5)cc4)NC(=O)[C@H](CN4CCOCC4)NC(=O)CSC[C@@H](C(=O)NCC(N)=O)NC(=O)[C@H](CC(C)C)NC(=O)[C@H](Cc4ccc(O)cc4)NC(=O)[C@H](C(C)C)NC(=O)[C@@H]4CCCN4C(=O)[C@H](C(C)C)NC(=O)[C@H](CCCNC(=N)N)NC(=O)[C@H](CC(=O)O)NC(=O)[C@@H]4CCCN4C(=O)CN(C)C3=O)cc2)cc1 [Example 196] ({CH2CO}-[Ala(morpholin-4-yl)][Bip][Bip(4'-NHAc)][Sar]PDRVPVYLCG-NH2; thioether N-13) |
| < 50 | CC[C@H](C)[C@@H]1NC(=O)[C@@H]2CCCN2C(=O)[C@H]([C@@H](C)CC)NC(=O)[C@@H](CCCNC(=N)N)NC(=O)[C@H](CC(=O)O)NC(=O)[C@H](Cc2ccccc2)NC(=O)CN(C)C(=O)[C@H](Cc2ccc(-c3ccc(NC(C)=O)cc3)cc2)NC(=O)[C@H](Cc2ccc(-c3ccc(C(=O)O)cc3)cc2)NC(=O)[C@H](C(C)(C)C)NC(=O)CSC[C@@H](C(=O)NCC(N)=O)NC(=O)[C@H](CC(C)C)NC(=O)[C@H](Cc2cnc[nH]2)NC1=O [Example 295] ({CH2CO}-[Tle][Bip(4'-COOH)][Bip(4'-NHAc)][Sar]FD[dR]IPIHLCG-NH2; thioether N-13) |
| < 50 | CC[C@H](C)[C@@H]1NC(=O)[C@@H]2CCCN2C(=O)[C@H]([C@@H](C)CC)NC(=O)[C@@H](CCCNC(=N)N)NC(=O)[C@H](CC(=O)O)NC(=O)[C@H](Cc2ccccn2)NC(=O)CN(C)C(=O)[C@H](Cc2ccc(-c3ccc(NC(C)=O)cc3)cc2)NC(=O)[C@H](Cc2ccc(-c3ccccc3)cc2)NC(=O)[C@H](CC2CCCCC2)NC(=O)CSC[C@@H](C(=O)NCC(N)=O)NC(=O)[C@H](CC(C)C)NC(=O)[C@H](Cc2cccc(C(N)=O)c2)NC1=O [Example 285] ({CH2CO}-[Cha][Bip][Bip(4'-NHAc)][Sar][2Pal]D[dR]IPI[Phe(3-CONH2)]LCG-NH2; thioether N-13) |
| < 50 | CC[C@H](C)[C@@H]1NC(=O)[C@@H]2CCCN2C(=O)[C@H]([C@@H](C)CC)NC(=O)[C@@H](CCCNC(=N)N)NC(=O)[C@H](CC(=O)O)NC(=O)[C@H](Cc2ccccc2)NC(=O)CN(C)C(=O)[C@H](Cc2ccc(-c3ccc(NC(=O)c4cccc(OCC(=O)O)c4)cc3)cc2)NC(=O)[C@H](Cc2ccc(-c3ccc(C(=O)O)cc3)cc2)NC(=O)[C@H](C(C)(C)C)NC(=O)CSC[C@@H](C(=O)NCC(N)=O)NC(=O)[C@H](CC(C)C)NC(=O)[C@H](Cc2cnc[nH]2)NC1=O [Example 352] ({CH2CO}-[Tle][Bip(4'-COOH)][Bip(4'-NH)](Benzoyl(3-OCH2COOH))[Sar]FD[dR]IPIHLCG-NH2; thioether N-13) |
| 50 to 200 | CC(C)C[C@@H]1NC(=O)[C@H](CCCNC(=N)N)NC(=O)[C@H](C(C)C)NC(=O)[C@@H]2CCCN2C(=O)[C@H](C(C)C)NC(=O)[C@H](CCCNC(=N)N)NC(=O)[C@H](CC(=O)O)NC(=O)[C@@H]2C[C@@H](c3ccccc3)CN2C(=O)CN(C)C(=O)[C@H](Cc2ccc(-c3ccccc3)cc2)NC(=O)[C@H](Cc2ccc(-c3ccccc3)cc2)NC(=O)[C@H](CN2CCOCC2)NC(=O)CSC[C@@H](C(=O)NCC(N)=O)NC1=O [Example 97] ({CH2CO}-[Ala(morpholin-4-yl)][Bip][Bip][Sar][Pro(trans-4-Ph)]DRVPVRLCG-NH2; thioether N-13) |
| 50 to 200 | CC[C@H](C)[C@@H]1NC(=O)[C@@H]2CCCN2C(=O)[C@H]([C@@H](C)CC)NC(=O)[C@@H](CCCNC(=N)N)NC(=O)[C@H](CC(=O)O)NC(=O)[C@@H]2CCCN2C(=O)CN(C)C(=O)[C@H](Cc2ccc(-c3ccc(NC(C)=O)cc3)cc2)NC(=O)[C@H](Cc2ccc(-c3ccc(C(=O)O)cc3)cc2)NC(=O)[C@H](CC2CCCCC2)NC(=O)CSC[C@@H](C(=O)NCC(N)=O)NC(=O)[C@H](CC(C)C)NC(=O)[C@H](Cc2ccc(O)cc2)NC1=O [Example 286] ({CH2CO}-[Cha][Bip(4'-COOH)][Bip(4'-NHAc)][Sar]PD[dR]IPIYLCG-NH2; thioether N-13) |
| < 50 | CC(=O)Nc1ccc(-c2ccc(C[C@@H]3NC(=O)[C@H](Cc4ccc(-c5ccccc5)cc4)NC(=O)[C@H](CN4CCOCC4)NC(=O)CSC[C@@H](C(=O)NCC(N)=O)NC(=O)[C@H](CC(C)C)NC(=O)[C@H](Cc4ccc(O)cc4)NC(=O)[C@H](C4CCCCC4)NC(=O)[C@@H]4CCCN4C(=O)[C@H](C(C)C)NC(=O)[C@H](CCCNC(=N)N)NC(=O)[C@H](CC(=O)O)NC(=O)[C@@H]4CCCN4C(=O)CN(C)C3=O)cc2)cc1 [Example 210] ({CH2CO}-[Ala(morpholin-4-yl)][Bip][Bip(4'-NHAc)][Sar]PDRVP[Chg]YLCG-NH2; thioether N-13) |
| 50 to 200 | CC(=O)Nc1ccc(-c2ccc(C[C@@H]3NC(=O)[C@H](Cc4ccc(-c5ccccc5)cc4)NC(=O)[C@H](Cc4c[nH]c5ccccc45)NC(=O)CSC[C@@H](C(=O)NCC(N)=O)NC(=O)[C@H](CC(C)C)NC(=O)[C@H](Cc4ccc(O)cc4)NC(=O)[C@H](C(C)C)NC(=O)[C@@H]4CCCN4C(=O)[C@H](C(C)C)NC(=O)[C@@H](CCCNC(=N)N)NC(=O)[C@H](CC(=O)O)NC(=O)[C@H](Cc4ccccn4)NC(=O)CN(C)C3=O)cc2)cc1 [Example 197] ({CH2CO}-W[Bip][Bip(4'-NHAc)][Sar][2Pal]D[dR]VPVYLCG-NH2; thioether N-13) |
| 200 to 2000 | CC(C)C[C@@H]1NC(=O)[C@H](CCCNC(=N)N)NC(=O)[C@H](C(C)C)NC(=O)[C@@H]2CCCN2C(=O)[C@H](CC(N)=O)NC(=O)[C@H](CCCNC(=N)N)NC(=O)[C@H](CC(=O)O)NC(=O)[C@@H]2CCCN2C(=O)CN(C)C(=O)[C@H](Cc2ccc(-c3ccccc3)cc2)NC(=O)[C@H](Cc2ccc(-c3ccccc3)cc2)NC(=O)[C@H](CN2CCOCC2)NC(=O)CSC[C@@H](C(=O)NCC(N)=O)NC1=O [Example 67] ({CH2CO}-[Ala(morpholin-4-yl)][Bip][Bip][Sar]PDRNPVRLCG-NH2; thioether N-13) |
| 200 to 2000 | CC(=O)Nc1ccc(-c2ccc(C[C@@H]3NC(=O)[C@H](Cc4ccc(-c5ccccc5)cc4)NC(=O)[C@H](CN4CCOCC4)NC(=O)CSC[C@@H](C(=O)NCC(N)=O)NC(=O)[C@H](CC(C)C)NC(=O)[C@H](Cc4cnc[nH]4)NC(=O)[C@H](C(C)C)NC(=O)[C@@H]4CCCN4C(=O)[C@H](C(C)C)NC(=O)[C@@H](CCCNC(=N)N)NC(=O)[C@H](CC(=O)O)NC(=O)[C@H](Cc4cnc[nH]4)NC(=O)CN(C)C3=O)cc2)cc1 [Example 211] ({CH2CO}-[Ala(morpholin-4-yl)][Bip][Bip(4'-NHAc)][Sar]HD[dR]VPVHLCG-NH2; thioether N-13) |

| SMILES | IC50 [nM] |
| --- | --- |
| CC(C)C[C@@H]1NC(=O)[C@H](CCCNC(=N)N)NC(=O)[C@H](C(C)C)NC(=O)[C@@H]2CCCN2C(=O)[C@H](C(C)C)NC(=O)[C@@H](CCCNC(=N)NCc2ccccc2)NC(=O)[C@H](CC(=O)O)NC(=O)[C@@H]2CCCN2C(=O)CN(C)C(=O)[C@H](Cc2ccc(-c3ccc(NC(=O)c4nn(C)c5ccccc45)cc3)cc2)NC(=O)[C@H](Cc2ccc(-c3ccccc3)cc2)NC(=O)[C@H](CN2CCOCC2)NC(=O)CSC[C@@H](C(=O)NCC(N)=O)NC1=O [Example 471] ({CH2CO}-[Ala(morpholin-4-yl)][Bip][X5][Sar]PD[dArg(ω-Bn)]VPVRLCG-NH2; thioether N-13) | < 50 |
